Assay [1] has as its system MM.1S human SLAMF7^+ multiple myeloma solid tumors. As to the kind of experiment: MM.1S solid tumor model in NSG mice, anti-tumor efficacy. The format is in vivo. Particulars: 2 million CAR^+ T cells per mouse, 5 mice per group (FIG. 17). The protocol: (§1) First, MM.1S human SLAMF7^+ multiple myeloma cell line tumors were established in immunodeficient mice. In this model, the MM.1S cells formed a solid cutaneous mass. Measurable tumors were allowed to develop over 7 days, and then the mice were treated with a single intravenous infusion of MSGV1-IC9-Luc90-CD828Z-transduced human T cells. NSG mice (NOD.Cg-Prkdc^scid Il2rg^tm1Wjl/SzJ) from The Jackson Laboratory, Bar Harbor, Me., were used. Mice received intradermal injections of 4×10^6 MM.1S cells. The cells were suspended in a 1:1 mixture of MATRIGEL™ gelatinous protein mixture (BD Biosciences) and PBS (Phosphate-buffered saline) for injection. Tumors were allowed to grow for 7 days, and then each mouse received a single intravenous infusion of human T cells that were transduced with one of 3 CARs: IC9-Luc90-CD828Z (suicide gene+anti-SLAMF7 CAR), Luc90-CD828Z (anti-SLAMF7 CAR alone), or a negative-control anti-CD19 CAR Hu19-CD828Z. A 4th group was left untreated. All groups included 5 mice. After CAR T-cell infusion, the tumors were measured with calipers every 3 days. The longest length and the length perpendicular to the longest length and the tumor thickness were multiplied together to obtain the tumor volume in mm^3. When the longest length reached 15 mm, mice were sacrificed. Animal studies were approved by the National Cancer Institute Animal Care and Use Committee.
FIGS. 16A-16B show a dose-titration of IC9-Luc90-CD828Z-expressing T cells. In this experiment, immunocompromised NSG mice were injected intradermally with 4×10^6 MM.1S cells to form a solid mass. Mice were then treated with a single infusion of 0.5×10^6, 2×10^6, or 8×10^6, IC9-Luc90-CD828Z-expressing T cells. […] The tumor volume curves end when the first mouse of a group was sacrificed.
MM.'S tumors were established in NSG mice as described in Example 9. FIGS. 17A-17B show results in which mice bearing MM.1S tumors were treated with T cells expressing one of 3 different CARs: IC9-Luc90-CD828Z (suicide gene+anti-SLAMF7 CAR), Luc90-CD828Z (anti-SLAMF7 CAR alone), or a negative-control anti-CD19 CAR Hu19-CD828Z. A 4th group was left untreated in both experiments. All groups included 5 mice. The CARP T cell dose was 2 million CARP T cells per mouse. There were 5 mice in all groups.

In assay [2] the test system is T cells only. As to the kind of experiment: IFN-gamma ELISA, T cells only (no target cells). The format is cell-based, human. To be noted: Table E. The protocol: (§2) One-hundred thousand SLAMF7^+ or SLAMF7-negative target cells were combined with 100,000 CAR-transduced T cells in duplicate wells of a 96 well round bottom plate in 200 µL of AIM V™ medium (Invitrogen) plus 5% human serum. The plates were incubated at 37° C. for 18-20 hours. Following the incubation, ELISAs (enzyme-linked immunosorbent assays) for IFNγ were performed by using standard methods.
(§3) The T cells columns indicate whether T cells were transduced with Luc90-CD828Z, Luc63-CD828Z, or were untransduced. The % CAR^+ in Table B-1 was determined by staining the T cells with Protein L. Except for the % CAR^+ column, all values are pg/mL of IFN-gamma. T cells that were either untransduced or transduced with one of the indicated CARs were cultured with target cells overnight and a standard IFN-gamma ELISA was performed on the culture supernatant.
(§4) All values are pg/mL of IFN-gamma. T cells that were either untransduced or transduced with one of the indicated CARs were cultured with target cells overnight, and a standard IFN-gamma ELISA was performed on the culture supernatant.
(§5) The values in the cells are pg/mL of IFN-gamma. T cells that were either untransduced or transduced with one of the indicated CARs were cultured with target cells overnight, and a standard IFN-gamma ELISA was performed on the culture supernatant. The concentrations of 0, 50, or 200 ng/mL at the top of each column indicates the concentration of soluble SLAMF7 added to all T cell plus target cell overnight cultures in that column. The soluble SLAMF7 was added at the beginning of the overnight culture.
(An ELISA detects its analyte on a solid surface through an enzyme-linked reagent.)

For assay [3], the system named is SLAMF7-K562 target cells. Nature of the assay: CFSE proliferation assay. The class given is cell-based, human. Particulars: SLAMF7-K562 versus NGFR-K562 target cells, 4 days (FIGS. 8B, 8C). An excerpt:
Cocultures were set up in 24-well plates. Target cells included in cocultures were either 0.5×10^6 irradiated SLAMF7-K562 cells or 0.5×10^6 irradiated NGFR-K562 cells. The cocultures also included 1×10^6 T cells from cultures that had been transduced with either […]. The T cells were labeled with carboxy fluorescein diacetate succinimidyl ester (CFSE, Invitrogen) as previously described. The medium used in the cocultures was AIM V™ (Invitrogen) plus 5% human AB serum. IL-2 was not added to the medium. Four days after initiation, the live cells in each coculture were counted with trypan blue for dead cell exclusion, and flow cytometry was performed by Protein L staining.

The subject of assay [4] is CCRF-CEM. Nature of the assay: IFN-gamma ELISA, CAR T cells with CCRF-CEM target cells. The format is cell-based, human. To be noted: Table E.
Text: (§6) MM.1S is a SLAMF7^+ multiple myeloma cell line that was obtained from American Type Culture Collection (ATCC). A549 is a BCMA-negative lung cancer cell line (ATCC). TC71 is a BCMA-negative sarcoma cell line. CCRF-CEM, 293T, and A549 are SLAMF7-negative cell lines (ATCC). COL0207, HepG2, U251, Panc10.05, and TC71 are […] that were kind gifts from Dr. Steven Rosenberg, National Cancer Institute. SLAMF7-K562 are K562 cells (ATCC) which were transduced with the gene for full-length SLAMF7. SLAMF7-RPMI are RPMI8226 cells (ATCC) which were transduced with the gene for full-length SLAMF7. NGFR-K562 are K562 cells which were transduced with the gene for low-affinity nerve growth factor (Kochenderfer et al., J. Immunother., 32(7): 689-702 (2009)). All of the human samples mentioned were obtained from patients enrolled in IRB-approved clinical trials at the National Cancer Institute.
as §2, §4

In assay [5] the test system is SLAMF7^+ MM.1S cells. As to the kind of experiment: Cytotoxicity assay (4 hours, relative to CCRF-CEM cells). The class given is cell-based, human. To be noted: MM.1S relative to control CCRF-CEM cells (FIG. 8A). The protocol: Cytotoxicity assays were conducted as previously described (see Kochenderfer et al., J. Immunother., 32(7): 689-702 (2009)). Cytotoxicity was measured by comparing survival of SLAMF7^+ target cells relative to the survival of negative-control CCRF-CEM cells. Both of these cell types were combined in the same tubes with CAR-transduced T cells. CCRF-CEM negative control cells were labeled with the fluorescent dye 5-(and -6)-(((4-chloromethyl)benzoyl)amino) tetramethylrhodamine (CMTMR) (Invitrogen), and SLAMF7^+ target cells were labeled with CFSE. Cocultures were set up in sterile 5 mL test tubes (BD Biosciences) in duplicate at multiple T cell to target cell ratios. The target cells contained in the tubes were 50,000 SLAMF7^+ target cells along with 50,000 CCRF-CEM negative-control cells. The cultures were incubated for 4 hours at 37° C. Immediately after the incubation, 7AAD (7-amino-actinomycin D) (BD Biosciences) was added, and flow cytometry acquisition was performed. For each T cell plus target-cell culture, the percent survival of SLAMF7^+ target cells was determined by dividing the percent live SLAMF7^+ cells by the percent live CCRF-CEM negative control cells. The corrected percent survival of SLAMF7^+ target cells was calculated by dividing the percent survival of SLAMF7^+ target cells in each T cell plus target cell culture by the ratio of the percent live SLAMF7^+ target cells to percent live CCRF-CEM negative-control cells in tubes containing only SLAMF7^+ target cells and CCRF-CEM cells without effector T cells. This correction was necessary to account for variation in the starting cell numbers and for spontaneous target cell death. Cytotoxicity was calculated as follows: the percent cytotoxicity of […] target cells=100−corrected percent survival of SLAMF7^+ target cells.

The test system of assay [6] is SLAMF7-K562. Nature of the assay: IFN-gamma ELISA, CAR T cells cultured overnight with SLAMF7-K562 target cells. The class given is cell-based, human. To be noted: Table E; overnight culture.
Text: as §6, §2, §3, §4

The test system of assay [7] is MM.1S. As to the kind of experiment: IFN-gamma ELISA, CAR T cells with MM.1S target cells. The class given is cell-based, human. To be noted: Table E.
Text: as §6, §2, §4

The subject of assay [8] is NGFR-K562. Nature of the assay: IFN-gamma ELISA, CAR T cells with NGFR-K562 target cells. The format is cell-based, human. To be noted: Table E.
Text: as §6, §2, §3, §4, §5

The subject of assay [9] is IC9-Luc90-CD828Z CAR T cells. Nature of the assay: AP1903 abrogation of CAR T-cell activity in MM.1S tumor-bearing mice. The class given is in vivo, NSG mice. The protocol:
as §1
MM.1S tumors were established in NSG mice as described in Example 9. The mice were treated with 2×10^6 IC9-Luc90-CD828Z T cells. The mice received 5 mg/kg of AP1903 intraeritoneally for either 3 days or 12 days after the CAR T-cell infusion. […] Also levels of IC9-Luc90-CD828Z CART cells in the mice receiving AP1903 were reduced as compared to the mice receiving the vehicle.

Assay [10] deals with IC9-expressing T cells. As to the kind of experiment: 6-hour and 48-hour post-rimiducid T cell death analysis. The class given is cell-based, human. To be noted: for elimination of transduced T cells by AP1903: 1, 10 or 100 ng/mL; for annexin V staining of residual CAR^+ T cells: AP1903 6 hours; for annexin V staining of residual CAR+ cells: AP1903 48 hours. The protocol:
On day 8 of culture, 1 million T cells from cultures that were either untransduced or transduced with one of the anti-SLAMF7 CARs cells were suspended at 1×10^6 T cells/mL in AIM V™ media (Invitrogen) plus 300 IU of interleukin-2. One million cells were added to each of 4 wells of a 12-well plate. A different concentration of AP1903 (MedChem Express, Princeton, N.J.) from was added to each well. AP1903 is also referred to as rimiducid. The concentrations of AP1903 evaluated were: 0, 1, 10, or 100 ng/mL.
Six hours and 48 hours after these cultures were set up, the cells were counted, washed, and stained with Protein L as described above. Next, the cells were washed twice with PBS, re-suspended in Annexin V binding buffer (BD Biosciences), and incubated with allophycocyanin-conjugated Annexin V (BD Biosciences) and 7AAD (BD Biosciences) for 15 minutes (mins) at room temp. The cells were immediately analyzed by flow cytometry.

Where [11] appears, read: T cells transduced with IC9-Luc90-CD828Z.
[12] abbreviates: T cells transduced with Luc90-CD828Z-IC9.

Take “Hu19-CD828Z: negative-control anti-CD19 CAR [reference compound]”: the anti-tumor activity result in [1] is given as “progressive tumors”.

In the case of “Luc90-CD828Z-IC9: CAR plus suicide gene construct (SEQ ID NO: 30): Luc90-CD828Z, T2A, IC9 suicide gene 3′ to the CAR”, in assay [2], the “IFN-gamma, T-cells Alone” value is recorded as 39 pg/mL. Further, the “proliferation (CFSE dilution)” value in assay [3] is on record as “proliferated more”. Also, in assay [4], the “IFN-gamma, CCRF-CEM” value is given as 42 pg/mL. Also, the “killing of SLAMF7^+ target cells” value in assay [5] is listed as “specifically killed the SLAMF7^+ MM.1S cells”. In addition, in assay [6], the “IFN-gamma, SLAMF7-K562” value was 2249 pg/mL. For the same molecule, the “IFN-gamma, MM.1S” value in [7] is 1333 pg/mL. In assay [8], the “IFN-gamma, NGFR-K562” value is 33 pg/mL.

Regarding `CC[C@H](C(=O)N1CCCC[C@H]1C(=O)O[C@H](CCc1ccc(OC)c(OC)c1)c1cccc(OCC(=O)NCCNC(=O)COc2cccc([C@@H](CCc3ccc(OC)c(OC)c3)OC(=O)[C@@H]3CCCCN3C(=O)[C@@H](CC)c3cc(OC)c(OC)c(OC)c3)c2)c1)c1cc(OC)c(OC)c(OC)c1` [AP1903], the “tumor outcome in mice receiving AP1903 after CAR T cells” value in assay [9] (2×10^6 IC9-Luc90-CD828Z T cells, AP1903 5 mg/kg intraperitoneally (FIG. 18)) was “progressive tumors”. Also, the “levels of IC9-Luc90-CD828Z CAR T cells in mice” value in assay [9] (AP1903 5 mg/kg compared to vehicle) is on record as “reduced”. The “elimination of transduced T cells by AP1903” value in assay [10] (T cells transduced with IC9-Luc90-CD828Z, 6 hours) is “most transduced cells exposed to either 1, 10, or 100 ng/mL of AP1903 were eliminated”; in assay [10] (T cells transduced with IC9-Luc90-CD828Z, 48 hours) it was “most transduced cells exposed to either 1, 10, or 100 ng/mL of AP1903 were eliminated”; in assay [10] (T cells transduced with Luc90-CD828Z-IC9, 6 hours), “most transduced cells exposed to either 1, 10, or 100 ng/mL of AP1903 were eliminated”; in [10] (T cells transduced with Luc90-CD828Z-IC9, 48 hours), “most transduced cells exposed to either 1, 10, or 100 ng/mL of AP1903 were eliminated”. Besides, the “annexin V staining of residual CAR^+ T cells” value in assay [10] (setting [11]) and in [10] (setting [12]) was “most residual CAR^+ T cells in the AP1903-treated cultures were annexin V^+” each time. Also, the “annexin V staining of residual CAR+ cells” value in assay [10] (setting [11]) and in assay [10] (setting [12]) was “most residual CAR+ cells were annexin V^+” each time. Also, the “dependence of elimination on AP1903 concentration” value in assay [10] (clinically-relevant range of concentrations tested (1-100 ng/mL)) is given as “did not depend on the concentration of AP1903”.

Values taken from patent publication US11951131B2, “Anti-SLAMF7 chimeric antigen receptors” (The United States of America, as represented by the …, priority 2018, dated 2024).
